Bounds are passed on as bounds.

For assay [1], the target named is T1, TYRO3 (Homo sapiens, UniProt Q06418).
T1 construct: purchased Life Technologies
T1 sequence (Q06418 41-890): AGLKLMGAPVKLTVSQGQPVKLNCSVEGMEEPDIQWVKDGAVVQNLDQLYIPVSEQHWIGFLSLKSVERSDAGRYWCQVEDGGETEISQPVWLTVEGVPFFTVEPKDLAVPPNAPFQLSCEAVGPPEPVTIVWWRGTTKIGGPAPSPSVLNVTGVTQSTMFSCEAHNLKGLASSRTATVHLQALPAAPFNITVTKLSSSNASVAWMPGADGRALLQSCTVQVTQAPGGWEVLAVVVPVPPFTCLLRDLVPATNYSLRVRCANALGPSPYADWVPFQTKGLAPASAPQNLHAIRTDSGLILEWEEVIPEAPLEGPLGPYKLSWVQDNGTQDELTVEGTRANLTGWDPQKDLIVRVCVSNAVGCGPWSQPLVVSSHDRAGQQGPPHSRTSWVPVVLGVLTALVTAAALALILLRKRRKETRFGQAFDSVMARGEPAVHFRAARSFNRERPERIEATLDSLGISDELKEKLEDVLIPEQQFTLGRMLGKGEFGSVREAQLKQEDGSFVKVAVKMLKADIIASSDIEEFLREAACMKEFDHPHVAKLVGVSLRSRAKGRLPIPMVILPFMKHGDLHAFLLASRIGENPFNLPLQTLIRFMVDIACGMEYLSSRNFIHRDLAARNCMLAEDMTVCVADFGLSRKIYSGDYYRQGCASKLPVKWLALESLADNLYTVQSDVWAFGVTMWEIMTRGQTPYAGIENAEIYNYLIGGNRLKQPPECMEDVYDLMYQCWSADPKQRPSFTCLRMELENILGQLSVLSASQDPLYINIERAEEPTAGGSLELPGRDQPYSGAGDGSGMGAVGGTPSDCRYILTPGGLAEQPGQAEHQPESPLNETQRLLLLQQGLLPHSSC
Put plainly: LanthaScreen Eu kinase binding assay, TYRO3. The conditions noted are these: Tracer 236. A general note: Time-resolved FRET reads energy transfer from a long-lived donor to a nearby acceptor.

Assay [2] addresses T2, Met (Homo sapiens, UniProt P08581).
T2 construct: purchased Life Technologies
The assay is described as follows: LanthaScreen Eu kinase binding assay, Met. Conditions: Tracer 236, read-out: cMet kinase binding activity (Kd).

Assay [3] relates to Axl phosphorylation in transiently transfected HEK293T cells. The assay is described as follows: Cellular Axl phosphorylation assay. The format is cell-based. Conditions: Homo sapiens, HEK-293T; HEK293T cells transfected with Axl, 1 hour compound treatment, Phospho-Axl vs Total-Axl. The essentials:
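HEK293T cells transiently transfected with Axl (empty pcDNA_DEST_40 vector as minimum control) were treated with compound in DMSO for 1 h, then lysed. Total and phospho-Axl in lysates were measured by Mesoscale electrochemiluminescence immunoassay. IC50 was taken relative to the DMSO vehicle and empty-vector controls.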

Assay [4] has as its system HCC827/ER cells. The assay is described as follows: WST-1 cell viability assay in erlotinib-resistant cells. Conditions: compound combined with Erlotinib at constant 1:1 ratio, 3 days, FBS 1%.
Description: The killed cells were discarded and the remaining cells were cultured in a drug-free medium up to 80% confluence. Subsequently, cells were continuously exposed to increasing drug doses of up to 10 μM over a period of 8 months.
HCC827/ER cells were seeded in a 96-well plate with their respective media containing 10% FBS at 5000 cells/well. After seeding, the HCC827/ER cells were incubated for approximately 24 hours. […] The viability of the HCC827/ER cells was determined by adding WST-1 reagent according to Manufacturer's instructions (DoGenbio co., Ltd) and incubating for four hours. The plates were then read using an absorbance of 440 nm on Tecan Microplate reader (Infinite M200 pro, TECAN). The HCC827/ER cells' viability were calculated relative to vehicle (DMSO) control wells.

T2 sequence (P08581 25-1390): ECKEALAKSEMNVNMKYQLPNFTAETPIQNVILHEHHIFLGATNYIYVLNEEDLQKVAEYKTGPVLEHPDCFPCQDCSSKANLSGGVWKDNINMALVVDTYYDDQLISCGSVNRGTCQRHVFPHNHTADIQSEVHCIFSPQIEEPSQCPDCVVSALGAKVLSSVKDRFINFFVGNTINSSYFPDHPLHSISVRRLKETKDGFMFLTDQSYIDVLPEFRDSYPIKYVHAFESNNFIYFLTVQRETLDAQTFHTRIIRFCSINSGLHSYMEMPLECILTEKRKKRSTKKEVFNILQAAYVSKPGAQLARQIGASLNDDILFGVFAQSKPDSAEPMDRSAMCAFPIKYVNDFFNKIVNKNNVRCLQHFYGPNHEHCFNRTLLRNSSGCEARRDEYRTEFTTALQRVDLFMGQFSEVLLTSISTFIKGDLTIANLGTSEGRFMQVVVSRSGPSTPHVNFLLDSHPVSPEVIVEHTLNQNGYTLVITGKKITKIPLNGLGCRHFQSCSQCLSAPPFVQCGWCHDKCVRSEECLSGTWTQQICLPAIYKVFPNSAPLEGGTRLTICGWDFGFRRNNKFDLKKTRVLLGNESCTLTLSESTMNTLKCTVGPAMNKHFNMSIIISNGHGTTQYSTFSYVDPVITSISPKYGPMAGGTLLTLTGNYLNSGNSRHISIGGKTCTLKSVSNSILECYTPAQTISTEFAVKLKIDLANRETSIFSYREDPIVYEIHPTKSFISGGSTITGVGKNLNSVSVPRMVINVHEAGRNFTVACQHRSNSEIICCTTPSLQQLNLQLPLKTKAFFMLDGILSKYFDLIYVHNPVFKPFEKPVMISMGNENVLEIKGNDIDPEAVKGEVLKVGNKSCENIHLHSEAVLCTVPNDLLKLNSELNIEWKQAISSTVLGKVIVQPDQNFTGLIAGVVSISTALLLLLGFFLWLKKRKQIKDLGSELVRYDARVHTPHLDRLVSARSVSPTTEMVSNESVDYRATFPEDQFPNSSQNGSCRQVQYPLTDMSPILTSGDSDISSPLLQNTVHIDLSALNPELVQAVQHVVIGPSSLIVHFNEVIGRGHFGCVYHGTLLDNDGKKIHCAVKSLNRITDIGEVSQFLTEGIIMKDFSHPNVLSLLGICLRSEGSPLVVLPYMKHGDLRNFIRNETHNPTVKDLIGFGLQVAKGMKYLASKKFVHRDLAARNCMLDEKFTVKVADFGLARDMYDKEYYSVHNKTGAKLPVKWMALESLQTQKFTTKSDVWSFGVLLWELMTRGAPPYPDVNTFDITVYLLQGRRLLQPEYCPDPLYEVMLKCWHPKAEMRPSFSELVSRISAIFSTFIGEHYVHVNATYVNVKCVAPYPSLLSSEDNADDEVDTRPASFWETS

In general, Kd refers to the free concentration of one partner at which half of the binding sites on the other are occupied at equilibrium, for simple one-to-one binding. Broadly, the IC50 is the midpoint of a concentration-inhibition curve. The low end stands for greater potency in that assay, the high end for weaker potency in that assay. In the case of `CCOc1cn(-c2c(C)ccnc2C)nc1C(=O)Nc1ccc(Oc2ccnc3cc(OC)c(OC)cc23)cn1` [Compound 132], the Kd in assay [1] and in assay [2] was less than 100 nM each time. The IC50 in assay [3] was less than 100 nM. Besides, the “Combination effect of compound and erlotinib on inhibition activity in Erlotinib-resistant cell-line” value in assay [4] is reported as “synergistic effect”.

Consider `CCOc1cn(-c2cncnc2C)nc1C(=O)Nc1ccc(Oc2ccnc3cc(OC)c(OC)cc23)cn1` [Compound 149], for which the Kd in assay [1] and in assay [2] was less than 100 nM each time. For the same compound, the IC50 in assay [3] was less than 100 nM. The “Combination effect of compound and erlotinib on inhibition activity in Erlotinib-resistant cell-line” value in assay [4] was “synergistic effect”.

In the case of `CCOc1cn(-c2cnccc2Cl)nc1C(=O)Nc1ccc(Oc2ccnc3cc(OC)c(OC)cc23)cc1F` [Compound 194], the Kd in assay [1] and in assay [2] was less than 100 nM throughout. In assay [3], this compound displayed a half-inhibitory concentration (IC50) of less than 100 nM.

As to `CCOc1cn(-c2cnccc2C(C)(C)O)nc1C(=O)Nc1ccc(Oc2ccnc3cc(OC)c(OC)cc23)c(F)c1` [Compound 195], the dissociation constant (Kd) in assay [1] and in assay [2] was less than 100 nM throughout. This compound also registered a 50% inhibitory concentration (IC50) in assay [3] of less than 100 nM.

As to `CCOc1cn(-c2cnccc2C(F)(F)F)nc1C(=O)Nc1ccc(Oc2ccnc3cc(OC)c(OC)cc23)cc1F` [Compound 196], the Kd in assay [1] and in assay [2] was less than 100 nM each time. For the same compound, the IC50 in assay [3] was less than 100 nM.

With `CCOc1cn(-c2cnccc2C(C)(C)O)nc1C(=O)Nc1ccc(Oc2ccnc3cc(OC)c(OC)cc23)cc1F` [Compound 197], the Kd in assay [1] and in assay [2] was less than 100 nM throughout. In assay [3], the IC50 is less than 100 nM.

On to `CCOc1cn(-c2cnccc2C(F)(F)F)nc1C(=O)Nc1ccc(Oc2ccnc3cc(OC)c(OC)cc23)c(F)c1` [Compound 198], for which the Kd in assay [1] and in assay [2] was less than 100 nM throughout. The compound also yielded an IC50 in assay [3] of less than 100 nM.

For `CCOc1cn(-c2cccnc2)nc1C(=O)Nc1ccc(Oc2ccnc3cc(OC)c(OC(F)(F)F)cc23)cn1` [Compound 199], the Kd in assay [1] and in assay [2] was not below 1000 nM each time. Moreover, in assay [3], the IC50 was less than 100 nM.

`CCOc1cn(-c2nccnc2C(C)(C)O)nc1C(=O)Nc1ccc(Oc2ccnc3cc(OC)c(OC)cc23)cn1` [Compound 200]: the Kd in assay [1] and in assay [2] was less than 100 nM each time. The IC50 in assay [3] is less than 100 nM.

For `CCOc1cn(-c2ccc(OC(F)(F)F)cc2Cl)nc1C(=O)Nc1ccc(Oc2ccnc3cc(OC)c(OC(F)(F)F)cc23)cn1` [Compound 201], the Kd is not below 1000 nM in assay [1] and 100 to 1000 nM in assay [2]. This compound gave an IC50 in assay [3] of 100 to 1000 nM.

On to `COc1cc2nccc(Oc3ccc(NC(=O)c4nn(-c5ccc(F)cc5C)cc4OCC(F)(F)F)nc3)c2cc1OC` [Compound 203], for which the Kd in assay [1] and in assay [2] was less than 100 nM in each case. The compound further returned an IC50 in assay [3] of less than 100 nM.

For the compound `CCOc1cn(-c2cnccc2C(C)(O)CO)nc1C(=O)Nc1ccc(Oc2ccnc3cc(OC)c(OC)cc23)cn1` (centres unmarked) [Compound 205], the Kd in assay [1] and in assay [2] was less than 100 nM throughout. This compound also came in with an IC50 in assay [3] of less than 100 nM.

On to `CCOc1cn(-c2cccnc2)nc1C(=O)Nc1ccc(Oc2ccnc3cc(OC(C)CC)c(OC)cc23)cn1` (centres unmarked) [Compound 206], for which the Kd in assay [1] and in assay [2] was not below 1000 nM in each case. The IC50 in assay [3] is less than 100 nM.

As for `CCOc1cn(-c2cnccc2CO)nc1C(=O)Nc1ccc(Oc2ccnc3cc(OC)c(OC)cc23)c(F)c1` [Compound 207], the Kd in assay [1] and in assay [2] was less than 100 nM in each case. The compound further had an IC50 in assay [3] of less than 100 nM.

Consider `CCOc1cn(-c2cccnc2)nc1C(=O)Nc1ccc(Oc2ccnc3cc(OC(C)C)c(OC)cc23)cn1` [Compound 208], for which the Kd in assay [1] was 100 to 1000 nM; in assay [2], less than 100 nM. Moreover, in assay [3], the IC50 was less than 100 nM.

For `CCOc1cn(-c2cnccc2CO)nc1C(=O)Nc1ccc(Oc2ccnc3cc(OC)c(OC)cc23)cc1F` [Compound 209], the Kd in assay [1] and in assay [2] was less than 100 nM each time. Besides, the IC50 in assay [3] is less than 100 nM.

As to `CCOc1cn(-c2cnccc2C)nc1C(=O)Nc1ccc(Oc2ccnc3cc(OC)c(OC)cc23)nn1` [Compound 210], the values for the Kd in assay [1] and in assay [2] were 100 to 1000 nM and less than 100 nM, respectively. This compound returned an IC50 in assay [3] of less than 100 nM.

For `CCOc1cn(C2CCCN(C)C2)nc1C(=O)Nc1ccc(Oc2ccnc3cc(OC)c(OC)cc23)cc1F` (centres unmarked) [Compound 211], the equilibrium dissociation constant (Kd) in assay [1] and in assay [2] was 100 to 1000 nM in each case. The IC50 in assay [3] was less than 100 nM.
